Legend:
Assay in all cases: relative viability (nuclei count vs DMSO), 5 days (fraction); higher = more cells survive
NCI-H650 = tested on: NCI-H650
Procedure, shortened: (§1)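 Relative viability equals treated-well nuclei counts divided by vehicle-well nuclei counts. Counts came from 4× images of lung cancer cell lines grown in 1536-well plates for 5 days after pin-tool dosing on the day after seeding. Dosing used one drug alone or a fixed anchor-drug dose plus five library-drug doses (not always all listed) in √10 steps, and values are medians of duplicate plates.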

NCI-H1651 = tested on: NCI-H1651
Procedure, shortened: as §1

HOP-62 = tested on: HOP-62
Procedure, shortened: as §1

COR-L23 = tested on: COR-L23
Procedure, shortened: as §1

NCI-H2023 = tested on: NCI-H2023
Procedure, shortened: as §1

EPLC-272H = tested on: EPLC-272H
Procedure, shortened: as §1

UMC-11 = tested on: UMC-11
Procedure, shortened: as §1

PC-14 = tested on: PC-14
Procedure, shortened: as §1

NCI-H2085 = tested on: NCI-H2085
Procedure, shortened: as §1

SW 1573 = tested on: SW 1573
Procedure, shortened: as §1

HARA = tested on: HARA
Procedure, shortened: as §1

NCI-H838 = tested on: NCI-H838
Procedure, shortened: as §1

NCI-H2126 = tested on: NCI-H2126
Procedure, shortened: as §1

LU99A = tested on: LU99A
Procedure, shortened: as §1

NCI-H1993 = tested on: NCI-H1993
Procedure, shortened: as §1

NCI-H1355 = tested on: NCI-H1355
Procedure, shortened: as §1

ABC-1 = tested on: ABC-1
Procedure, shortened: as §1

LC-2-ad = tested on: LC-2-ad
Procedure, shortened: as §1

NCI-H1915 = tested on: NCI-H1915
Procedure, shortened: as §1

NCI-H2347 = tested on: NCI-H2347
Procedure, shortened: as §1

HCC-44 = tested on: HCC-44
Procedure, shortened: as §1

NCI-H358 = tested on: NCI-H358
Procedure, shortened: as §1

HCC-15 = tested on: HCC-15
Procedure, shortened: as §1

O=c1cc(-c2cccc3c2Sc2ccccc2S3)oc(N2CCOCC2)c1 + CC(=O)c1c(C)c2cnc(Nc3ccc(N4CCNCC4)cn3)nc2n(C2CCCC2)c1=O [Palbociclib] (partner 0.5 µM)
relative viability (NCI-H650; first compound 0.08 µM): 0.346 | relative viability (NCI-H650; first compound 0.253 µM): 0.323 | relative viability (NCI-H650; first compound 0.8 µM): 0.372 | relative viability (NCI-H650; first compound 2.53 µM): 0.278 | relative viability (NCI-H650; first compound 8 µM): 0.36 | relative viability (NCI-H1651; first compound 0.08 µM): 0.523 | relative viability (NCI-H1651; first compound 0.253 µM): 0.537 | relative viability (NCI-H1651; first compound 0.8 µM): 0.524 | relative viability (NCI-H1651; first compound 2.53 µM): 0.509 | relative viability (NCI-H1651; first compound 8 µM): 0.537 | relative viability (HOP-62; first compound 0.08 µM): 0.465 | relative viability (HOP-62; first compound 0.253 µM): 0.391 | relative viability (HOP-62; first compound 0.8 µM): 0.497 | relative viability (HOP-62; first compound 2.53 µM): 0.512 | relative viability (HOP-62; first compound 8 µM): 0.54 | relative viability (COR-L23; first compound 0.08 µM): 0.291 | relative viability (COR-L23; first compound 0.253 µM): 0.307 | relative viability (COR-L23; first compound 0.8 µM): 0.393 | relative viability (COR-L23; first compound 2.53 µM): 0.334 | relative viability (COR-L23; first compound 8 µM): 0.34 | relative viability (NCI-H2023; first compound 0.08 µM): 0.379 | relative viability (NCI-H2023; first compound 0.253 µM): 0.407 | relative viability (NCI-H2023; first compound 0.8 µM): 0.407 | relative viability (NCI-H2023; first compound 2.53 µM): 0.369 | relative viability (NCI-H2023; first compound 8 µM): 0.291 | relative viability (EPLC-272H; first compound 0.08 µM): 0.34 | relative viability (EPLC-272H; first compound 0.253 µM): 0.318 | relative viability (EPLC-272H; first compound 0.8 µM): 0.321 | relative viability (EPLC-272H; first compound 2.53 µM): 0.287 | relative viability (EPLC-272H; first compound 8 µM): 0.285 | relative viability (UMC-11; first compound 0.08 µM): 0.338 | relative viability (UMC-11; first compound 0.253 µM): 0.328 | relative viability (UMC-11; first compound 0.8 µM): 0.346 | relative viability (UMC-11; first compound 2.53 µM): 0.326 | relative viability (UMC-11; first compound 8 µM): 0.345 | relative viability (PC-14; first compound 0.08 µM): 0.552 | relative viability (PC-14; first compound 0.253 µM): 0.746 | relative viability (PC-14; first compound 0.8 µM): 0.578 | relative viability (PC-14; first compound 2.53 µM): 0.46 | relative viability (PC-14; first compound 8 µM): 0.489 | relative viability (NCI-H2085; first compound 0.08 µM): 0.431 | relative viability (NCI-H2085; first compound 0.253 µM): 0.508 | relative viability (NCI-H2085; first compound 0.8 µM): 0.471 | relative viability (NCI-H2085; first compound 2.53 µM): 0.467 | relative viability (NCI-H2085; first compound 8 µM): 0.412 | relative viability (SW 1573; first compound 0.08 µM): 0.426 | relative viability (SW 1573; first compound 0.253 µM): 0.414 | relative viability (SW 1573; first compound 0.8 µM): 0.448 | relative viability (SW 1573; first compound 2.53 µM): 0.377 | relative viability (SW 1573; first compound 8 µM): 0.362 | relative viability (HARA; first compound 0.08 µM): 0.253 | relative viability (HARA; first compound 0.253 µM): 0.201 | relative viability (HARA; first compound 0.8 µM): 0.241 | relative viability (HARA; first compound 2.53 µM): 0.209 | relative viability (HARA; first compound 8 µM): 0.266 | relative viability (NCI-H838; first compound 0.08 µM): 0.187 | relative viability (NCI-H838; first compound 0.253 µM): 0.265 | relative viability (NCI-H838; first compound 0.8 µM): 0.202 | relative viability (NCI-H838; first compound 2.53 µM): 0.212 | relative viability (NCI-H838; first compound 8 µM): 0.222 | relative viability (NCI-H2126; first compound 0.08 µM): 0.393 | relative viability (NCI-H2126; first compound 0.253 µM): 0.361 | relative viability (NCI-H2126; first compound 0.8 µM): 0.357 | relative viability (NCI-H2126; first compound 2.53 µM): 0.358 | relative viability (NCI-H2126; first compound 8 µM): 0.357 | relative viability (LU99A; first compound 0.08 µM): 0.413 | relative viability (LU99A; first compound 0.253 µM): 0.417 | relative viability (LU99A; first compound 0.8 µM): 0.491 | relative viability (LU99A; first compound 2.53 µM): 0.463 | relative viability (LU99A; first compound 8 µM): 0.449 | relative viability (NCI-H1993; first compound 0.08 µM): 0.632 | relative viability (NCI-H1993; first compound 0.253 µM): 0.674 | relative viability (NCI-H1993; first compound 0.8 µM): 0.526 | relative viability (NCI-H1993; first compound 2.53 µM): 0.599 | relative viability (NCI-H1993; first compound 8 µM): 0.709 | relative viability (NCI-H1355; first compound 0.08 µM): 0.396 | relative viability (NCI-H1355; first compound 0.253 µM): 0.428 | relative viability (NCI-H1355; first compound 0.8 µM): 0.371 | relative viability (NCI-H1355; first compound 2.53 µM): 0.401 | relative viability (NCI-H1355; first compound 8 µM): 0.264 | relative viability (ABC-1; first compound 0.08 µM): 1.04 | relative viability (ABC-1; first compound 0.253 µM): 0.836 | relative viability (ABC-1; first compound 0.8 µM): 0.474 | relative viability (ABC-1; first compound 2.53 µM): 0.767 | relative viability (ABC-1; first compound 8 µM): 0.674 | relative viability (LC-2-ad; first compound 0.08 µM): 0.513 | relative viability (LC-2-ad; first compound 0.253 µM): 0.51 | relative viability (LC-2-ad; first compound 0.8 µM): 0.469 | relative viability (LC-2-ad; first compound 2.53 µM): 0.502 | relative viability (LC-2-ad; first compound 8 µM): 0.425 | relative viability (NCI-H1915; first compound 0.08 µM): 0.549 | relative viability (NCI-H1915; first compound 0.253 µM): 0.527 | relative viability (NCI-H1915; first compound 0.8 µM): 0.541 | relative viability (NCI-H1915; first compound 2.53 µM): 0.509 | relative viability (NCI-H1915; first compound 8 µM): 0.497 | relative viability (NCI-H2347; first compound 0.08 µM): 0.42 | relative viability (NCI-H2347; first compound 0.253 µM): 0.483 | relative viability (NCI-H2347; first compound 0.8 µM): 0.453 | relative viability (NCI-H2347; first compound 2.53 µM): 0.39 | relative viability (NCI-H2347; first compound 8 µM): 0.483 | relative viability (HCC-44; first compound 0.08 µM): 0.965 | relative viability (HCC-44; first compound 0.253 µM): 0.918 | relative viability (HCC-44; first compound 0.8 µM): 0.919 | relative viability (HCC-44; first compound 2.53 µM): 0.958 | relative viability (HCC-44; first compound 8 µM): 0.962 | relative viability (NCI-H358; first compound 0.08 µM): 0.135 | relative viability (NCI-H358; first compound 0.253 µM): 0.144 | relative viability (NCI-H358; first compound 0.8 µM): 0.13 | relative viability (NCI-H358; first compound 2.53 µM): 0.134 | relative viability (NCI-H358; first compound 8 µM): 0.152 | relative viability (HCC-15; first compound 0.08 µM): 0.796 | relative viability (HCC-15; first compound 0.253 µM): 0.778 | relative viability (HCC-15; first compound 0.8 µM): 0.79 | relative viability (HCC-15; first compound 2.53 µM): 0.695 | relative viability (HCC-15; first compound 8 µM): 0.636
